# According to US12648924B2, “Prevention and treatment of effects of aging and age-associated disorders with ketone supplementation” (priority 2020, dated 2026):
# How the values were obtained:
# Assay type in all cases: in vivo, VM/Dk mice
# [1] = Blood glucose and ketones after single KDE gavage at various dosages (Experiment 5a); settings: vs timepoint 0
# Protocol: Metabolic Biomarkers: Blood glucose and R β-hydroxybutyrate were measured using Precision Xtra™ Blood Glucose & Ketone Monitoring System (Abbott Laboratories, Abbott Park, IL). Blood lactate concentration was measured using Lactate Plus Lactate Meter (Nova Biomedical). IGF-1 and Insulin were relabeled for blinded analysis and subsequently analyzed using Luminex 100 system (Luminex, Austin, TX) with R&D Systems Mouse 1-Plex Luminex Assay (R&D Systems, Minneapolis, MN) and Milliplex Mouse Multiplex Kit (Millipore, St. Charles, MO), respectively, using manufacturer's protocol.
# Ketone Diester Mitigates Bodyweight Loss and Comorbidities in Inflammation-Induced Atrophy: Reductions in anorexia, tumor burden, and skeletal muscle atrophy all present ideal outcomes in the clinical environment of CACS. It should be noted, however, that altered anorexia and tumor burden can confound interpretation of the direct effects of the KDE on skeletal muscle atrophy. […] Due to the rapid nature of LPS-induced atrophy, various dosages of KDE were gavaged to determine their ability to rapidly shift systemic metabolism. […] To determine KDE's effect on cancer-independent catabolism, a maximal non-fatal LPS dose (10 mg/kg) was administered, followed by a single 4 mL/kg water (LPS) or KDE (KDE+LPS) gavage. KDE attenuated bodyweight loss 47% within the first 24 hours post-LPS administration (FIG. 7B).
# [2] = KDE in LPS-induced sepsis, inflammation-induced atrophy, ad libitum fed (Experiment 5b); settings: single 4 mL/kg KDE gavage after 10 mg/kg LPS
# Protocol: VM-M3 Cell and Lipopolysaccharide Implantation: For VM-M3 implantation in the model characterization experiments (FIG. 1-5; FIG. 8-12), ˜1×10^6 VM-M3 cells (T. Seyfried, Boston College) in 300 μL sterile PBS (CA-M and CA-F) or 300 μL sterile PBS-only (SH-M and SH-F) were injected subcutaneously into the left abdominal flank resulting in primary tumor formation at the injection site, and subsequently systemically metastasizes to most major organs, namely the liver, kidneys, spleen, lungs, and brain. […] This method of implantation further minimized variability in markers of tumor progression, and therefore provides a useful optional method technique in the VM-M3 model for efficient analysis of potential therapeutic agents. To determine KDE-induced effects on CACS, 1×10^6 VM-M3 cells in 300 μL sterile PBS (KDE+VM-M3 and VM-M3) or 300 μL sterile PBS-only (Sham) were administered intraperitoneally (FIG. 6; FIG. 13). For LPS administration in the septic atrophy model, LPS (Escherichia coli 055:B5; L2880; Sigma-Aldrich, St. Louis, MO) was diluted in sterile PBS and administered intraperitoneally at 10 mg/kg as pilot work indicated a maximal, yet non-fatal, ˜15% bodyweight reduction at 10 mg/kg dose.
# Body Composition: Bodyweight was assessed daily at the same time (7:00-9:00 AM). At EOL, bodyweight and weights of ascites fluid, primary tumor, calf (combined gastrocnemius & soleus), anterior thigh (quadriceps), intraperitoneal fat pads, liver and spleen tissue were measured (Table 1; Experiment 1a&b). A follow-up time course experiment was conducted at weeks 1, 2, and 3 to assess weekly changes in bodyweight and aforementioned tissues for both cancer and sham-matched control animals (Experiment 2). For follow up evaluation of KDE in CACS, bodyweight was tracked daily with tissue weight determined at 21-days, prior to EOL (Experiment 4c). All tissue weights were gathered at harvest and normalized to baseline bodyweight (not influenced by cachexia progression) to allow for appropriate comparison between animals. For evaluation of KDE in LPS, bodyweight was tracked daily for evaluation pre- and post-LPS administration (Experiment 5b&c).
# Food Intake and Ketone Diester Administration: Standard diet dry food (2018 Teklad Global 18% Protein Rodent Diet, Harlan) was mixed with deionized water (1 g dry food/mL deionized water) into a consistent paste and placed on a 100×15 mm dish. Food intake was tracked daily at the same time (7:00-9:00) and replaced every other day to ensure fresh food. […] As pilot work indicated potential water evaporation in food paste in ventilated cages, dehydration standard curve was calculated across various volumes of plated food (5, 10, 25.0, 50.0, 100 g/food) with and without KDE over a two-day period. […]
# [3] = KDE in LPS-induced atrophy, pair-fed animals (Experiment 5c); settings: single 4 mL/kg KDE gavage after 10 mg/kg LPS, 1 day post LPS, vs LPS group
smiles,measurement,setting,value
"CC(=O)CC(=O)OCCC(C)OC(=O)CC(C)=O (stereo not drawn) [KDE, R/S 1,3-butanediol acetoacetate diester]",blood glucose,[1]; 4 mL/kg KDE gavage,significant and rapid reductions
same,blood ketones,[1]; 4 mL/kg KDE gavage,elevations in blood ketones
same,blood glucose,[1]; 5 mL/kg KDE gavage,significant and rapid reductions
same,blood ketones,[1]; 5 mL/kg KDE gavage,elevations in blood ketones
same,anorexic symptoms (percentage caloric restriction),[2]; 1 day post LPS,significantly reduced
same,attenuation of bodyweight loss,"[2]; first 24 hours, vs LPS with water",47%
same,chronic LPS-induced bodyweight loss,[2]; followed 13 days,significantly attenuated
same,time to recovery (return to baseline bodyweight),[2]; LPS alone did not recover within 13 days,≤ 10 days
same,reduction of bodyweight loss,[3],28%
